Reference: patent US8822754B2, “Ecdysone receptor-based inducible gene expression system” (Intrexon Corporation, priority 2000, dated 2014)

Legend:
GAL4EcR + VP16RXR = test: Transactivation of reporter genes through switch 1.1 in 3T3 cells; conditions: GAL4CfEcRDEF/VP16MmRXRDEF (switch 1.1), 1.0 μM ligand, 48 hr
Excerpt: (§1) In various cellular backgrounds, including mammalian cells, insect ecdysone receptor (EcR) heterodimerizes with retinoid X receptor (RXR) and, upon binding of ligand, transactivates genes under the control of ecdysone response elements. Applicants constructed several EcR-based gene expression cassettes based on the spruce budworm Choristoneura fumiferana EcR (“CfEcR”; full length polynucleotide and amino acid sequences are set forth in SEQ ID NO: 49 and SEQ ID NO: 50, respectively), C. fumiferana ultraspiracle (“CfUSP”; full length polynucleotide and amino acid sequences are set forth in SEQ ID NO: 51 and SEQ ID NO: 52, respectively), and mouse Mus musculus RXRα (MmRXRα; full length polynucleotide and amino acid sequences are set forth in SEQ ID NO: 53 and SEQ ID NO: 54, respectively). The prepared receptor constructs comprise a ligand binding domain of EcR and of RXR or of USP; a DNA binding domain of GAL4 or of EcR; and an activation domain of VP16. The reporter constructs include a reporter gene, luciferase or LacZ, operably linked to a synthetic promoter construct that comprises either GAL4 or EcR/USP binding sites (response elements). Various combinations of these receptor and reporter constructs were cotransfected into CHO, NIH3T3, CV1 and 293 cells. […] Reporter gene expression activities were assayed at 24 hr or 48 hr after ligand addition.
(§2) The same procedures described for CHO cells were followed for 3T3 cells as well with two modifications. The cells were plated when they reached 50% confluency. 125,000 or 50,000 or 25,000 cells were plated per well of 6- or 12- or 24-well plates respectively. The GAl4EcR/VP16RXR and reporter vector DNAs were transfected into NIH3T3 cells, the transfected cells were grown in medium containing PonA, MurA, N-(2-ethyl-3-methoxybenzoyl)-N′-(3,5-dimethylbenzoyl)-N′-t-butylhydrazine, or N-(3,4-(1,2-ethylenedioxy)-2-methylbenzoyl)-N′-(3,5-dimethylbenzoyl)-N′-tert-butylhydrazine for 48 hr. The ligand treatments were performed as described in the CHO cell section above.
(§3) Cells were harvested 24-48 hr after adding ligands. 125, 250, or 500 μl of passive lysis buffer (part of Dual-luciferase™ reporter assay system from Promega Corporation) were added to each well of 24- or 12- or […] respectively. The plates were placed on a rotary shaker for 15 min. Twenty μl of lysate was assayed. Luciferase activity was measured using Dual-luciferase™ reporter assay system from Promega Corporation following the manufacturer's instructions. β-Galactosidase was measured using Galacto-Star™ assay kit from TROPIX following the manufacturer's instructions. All luciferase and β-galactosidase activities were normalized using Renilla luciferase as a standard. Fold activities were calculated by dividing normalized relative light units (“RLU”) in ligand treated cells with normalized RLU in DMSO treated cells (untreated control).

GAL4RXR + VP16CfEcR = test: Transactivation of reporter genes through switch 1.3 in 3T3 cells; conditions: GAL4MmRXRDEF/VP16CfEcRCDEF (switch 1.3), 1.0 μM ligand
Excerpt: as §1
MmRXRDEF (SEQ ID NO: 22) was fused to a GAL4DNABD (SEQ ID NO: 41) and CfEcRCDEF (SEQ ID NO: 1) was fused to a VP16AD (SEQ ED NO: 45).
as §2, §3

CfEcR = test: Comparison of switches in the mammalian cell lines tested (Tables 1-4); assay type: cell-based, Choristoneura fumiferana; conditions: see Tables 1-4
Method: Several commercially available lipofactors as well as electroporation methods were evaluated and the best conditions for transfection of each cell line were developed. CHO, NIH3T3, 293 and CV1 cells were grown to 60% confluency. DNAs corresponding, to the various switch constructs outlined in Examples 1.1 through 1.10 were transfected into CHO cells, NIH3T3 cells, 293 cells, or CV1 cells as follows.
Cells were harvested 24-48 hr after adding ligands. […] Twenty μl of lysate was assayed.

CfEcR/RXR-based switch = test: Luciferase reporter assay of truncated CfEcR and MmRXR receptor pairs in NIH3T3 cells (Example 2); assay type: cell-based, Choristoneura fumiferana; conditions: NIH3T3 cells, 0, 1, 5 or 25 uM ligand, 48 hr; FIGS. 11-14
Method: Briefly, polynucleotides encoding EcR or RXR receptors were truncated at the junctions of A/B, C, D, E and F domains and fused to either a GAL4 DNA binding domain encoding polynucleotide (SEQ ID NO: 41) for CfEcR, or a VP16 activation domain encoding polynucleotide (SEQ ID NO: 45) for MmRXR as described in Example 1. The resulting receptor truncation/fusion polypeptides were assayed in NIH3T3 cells. Plasmid pFRLUC (Stratagene) encoding a luciferase polypeptide was used as a reporter gene construct and pTKRL (Promega) encoding a Renilla luciferase polypeptide under the control of the constitutive TK promoter was used to normalize the transfections as described above. The analysis was performed in triplicates and mean luciferase counts were determined as described above.
Gene expression cassettes comprising polynucleotides encoding either full length or truncated CfEcR polypeptides fused to a GALA. […] The cells were harvested, lysed and luciferase reporter activity was measured in the cell lysates. […]

Compound | Mean Fold Induction at 1.0 μM Concentration (GAL4EcR + VP16RXR) [fold] | Mean Fold Induction at 1.0 μM Concentration (GAL4RXR + VP16CfEcR) [fold] | potency as activators of CfEcR as compared to DmEcR (CfEcR) | sensitivity of the EcR/RXR switch to the ligand (CfEcR/RXR-based switch)
CC(C)CC[C@@H](O)[C@](C)(O)[C@H]1CC[C@@]2(O)C3=CC(=O)[C@]4(O)C[C@@H](O)[C@@H](O)C[C@]4(C)[C@H]3[C@H](O)C[C@]12C [Muristerone A, reference compound] | 1.0 | 1.0 |  | 
Cc1cc(C)cc(C(=O)N(NC(=O)c2ccc3c(c2C)OCCO3)C(C)(C)C)c1 [N-(3,4-(1,2-ethylenedioxy)-2-methylbenzoyl)-N′-(3,5-dimethylbenzoyl)-N′-tert-butylhydrazine] | 601 | 54 | more potent activators of CfEcR | 
CC(C)CC[C@@H](O)[C@](C)(O)[C@H]1CC[C@@]2(O)C3=CC(=O)[C@@H]4C[C@@H](O)[C@@H](O)C[C@]4(C)[C@H]3CC[C@]12C [Ponasterone A, reference compound] | 1.0 | 1.0 |  | insensitive
